In ChEMBL document CHEMBL4507320, “Data for DCP probe NVS-MALT1” (2021):

Assays:
[1] = molecular target: AP2-associated protein kinase 1 (Homo sapiens) (UniProt Q2M2I8); details: Compound concentration 1000.0 nM
[2] = system: Tyrosine-protein kinase ABL1 (Homo sapiens), P00519 [F317L]; details: Compound concentration 1000.0 nM
[3] = system: Tyrosine-protein kinase ABL1 (Homo sapiens), P00519 [T315I]; details: Compound concentration 1000.0 nM
[4] = molecular target: Activin receptor type-2A (Homo sapiens) (UniProt P27037); details: Compound concentration 1000.0 nM
[5] = molecular target: Bone morphogenetic protein receptor type-1A (Homo sapiens) (UniProt P36894); details: Compound concentration 1000.0 nM
[6] = molecular target: Serine/threonine-protein kinase BRSK1 (Homo sapiens) (UniProt Q8TDC3); details: Compound concentration 1000.0 nM
[7] = molecular target: Cyclin-dependent kinase 13 (Homo sapiens) (UniProt Q14004); details: Compound concentration 1000.0 nM
[8] = molecular target: Casein kinase II subunit alpha' (Homo sapiens) (UniProt P19784); details: Compound concentration 1000.0 nM
Chain of Casein kinase II subunit alpha' (Homo sapiens) (P19784 whole entry, looked up): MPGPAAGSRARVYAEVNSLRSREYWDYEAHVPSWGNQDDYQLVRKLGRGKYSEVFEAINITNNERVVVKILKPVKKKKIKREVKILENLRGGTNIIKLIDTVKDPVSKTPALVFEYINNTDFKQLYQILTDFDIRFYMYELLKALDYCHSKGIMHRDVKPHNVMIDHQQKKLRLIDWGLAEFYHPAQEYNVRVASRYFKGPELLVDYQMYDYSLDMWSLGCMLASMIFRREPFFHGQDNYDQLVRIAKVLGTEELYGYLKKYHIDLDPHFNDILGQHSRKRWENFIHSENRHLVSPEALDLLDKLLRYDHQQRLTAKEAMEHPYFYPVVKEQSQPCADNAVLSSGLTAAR

[9] = molecular target: Death-associated protein kinase 3 (Homo sapiens) (UniProt O43293); details: Compound concentration 1000.0 nM
[10] = molecular target: Epithelial discoidin domain-containing receptor 1 (Homo sapiens) (UniProt Q08345); details: Compound concentration 1000.0 nM
[11] = system: Epidermal growth factor receptor (Homo sapiens), P00533 [UNDEFINED MUTATION]; details: Compound concentration 1000.0 nM
[12] = system: Epidermal growth factor receptor (Homo sapiens), P00533 [L861Q]; details: Compound concentration 1000.0 nM
[13] = molecular target: Ephrin type-A receptor 5 (Homo sapiens) (UniProt P54756); details: Compound concentration 1000.0 nM
[14] = molecular target: Ephrin type-B receptor 3 (Homo sapiens) (UniProt P54753); details: Compound concentration 1000.0 nM
[15] = molecular target: Mitogen-activated protein kinase 4 (Homo sapiens) (UniProt P31152); details: Compound concentration 1000.0 nM
[16] = system: Receptor-type tyrosine-protein kinase FLT3 (Homo sapiens), P36888 [D835V]; details: Compound concentration 1000.0 nM
[17] = system: eIF-2-alpha kinase GCN2 (Homo sapiens), Q9P2K8 [S808G]; details: Compound concentration 1000.0 nM
[18] = molecular target: Homeodomain-interacting protein kinase 2 (Homo sapiens) (UniProt Q9H2X6); details: Compound concentration 1000.0 nM
Chain of Homeodomain-interacting protein kinase 2 (Homo sapiens) (Q9H2X6 whole entry, looked up): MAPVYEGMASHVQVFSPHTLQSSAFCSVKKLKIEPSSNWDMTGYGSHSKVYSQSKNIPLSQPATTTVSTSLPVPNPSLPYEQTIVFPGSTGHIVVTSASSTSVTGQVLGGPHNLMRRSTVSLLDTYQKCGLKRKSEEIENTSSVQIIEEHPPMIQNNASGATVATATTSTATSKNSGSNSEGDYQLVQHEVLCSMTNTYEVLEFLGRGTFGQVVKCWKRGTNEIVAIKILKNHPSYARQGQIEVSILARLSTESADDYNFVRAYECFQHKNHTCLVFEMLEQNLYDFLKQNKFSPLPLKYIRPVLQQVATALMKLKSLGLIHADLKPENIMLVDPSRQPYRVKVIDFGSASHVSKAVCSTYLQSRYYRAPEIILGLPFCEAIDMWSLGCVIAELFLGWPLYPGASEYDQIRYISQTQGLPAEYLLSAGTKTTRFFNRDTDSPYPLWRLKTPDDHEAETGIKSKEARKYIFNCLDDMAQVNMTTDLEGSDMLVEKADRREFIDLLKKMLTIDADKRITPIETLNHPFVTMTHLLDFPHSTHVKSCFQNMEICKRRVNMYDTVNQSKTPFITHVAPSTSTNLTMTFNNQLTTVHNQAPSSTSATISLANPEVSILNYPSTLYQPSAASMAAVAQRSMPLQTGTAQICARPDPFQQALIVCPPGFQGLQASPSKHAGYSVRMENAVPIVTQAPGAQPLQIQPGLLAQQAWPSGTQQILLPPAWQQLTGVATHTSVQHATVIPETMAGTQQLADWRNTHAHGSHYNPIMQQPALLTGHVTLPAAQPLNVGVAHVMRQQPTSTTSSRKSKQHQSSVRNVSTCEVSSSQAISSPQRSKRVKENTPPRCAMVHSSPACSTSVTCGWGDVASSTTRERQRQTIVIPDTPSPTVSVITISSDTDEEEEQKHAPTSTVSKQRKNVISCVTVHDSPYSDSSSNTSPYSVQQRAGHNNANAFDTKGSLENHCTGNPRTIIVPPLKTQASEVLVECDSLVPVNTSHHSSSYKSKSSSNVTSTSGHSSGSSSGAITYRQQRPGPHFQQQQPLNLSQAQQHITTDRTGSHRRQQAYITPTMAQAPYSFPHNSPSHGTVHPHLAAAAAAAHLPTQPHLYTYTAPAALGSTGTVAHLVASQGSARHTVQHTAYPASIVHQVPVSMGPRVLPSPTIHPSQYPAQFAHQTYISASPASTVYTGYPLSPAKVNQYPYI

[19] = system: Mast/stem cell growth factor receptor Kit (Homo sapiens), P10721 [V559D]; details: Compound concentration 1000.0 nM
[20] = molecular target: Leukocyte tyrosine kinase receptor (Homo sapiens) (UniProt P29376); details: Compound concentration 1000.0 nM
[21] = molecular target: Mitogen-activated protein kinase kinase kinase 1 (Homo sapiens) (UniProt Q13233); details: Compound concentration 1000.0 nM
[22] = molecular target: Mitogen-activated protein kinase kinase kinase 15 (Homo sapiens) (UniProt Q6ZN16); details: Compound concentration 1000.0 nM
[23] = molecular target: Mitogen-activated protein kinase kinase kinase kinase 3 (Homo sapiens) (UniProt Q8IVH8); details: Compound concentration 1000.0 nM
[24] = molecular target: Serine/threonine-protein kinase MARK2 (Homo sapiens) (UniProt Q7KZI7); details: Compound concentration 1000.0 nM
Chain of Serine/threonine-protein kinase MARK2 (Homo sapiens) (Q7KZI7 whole entry): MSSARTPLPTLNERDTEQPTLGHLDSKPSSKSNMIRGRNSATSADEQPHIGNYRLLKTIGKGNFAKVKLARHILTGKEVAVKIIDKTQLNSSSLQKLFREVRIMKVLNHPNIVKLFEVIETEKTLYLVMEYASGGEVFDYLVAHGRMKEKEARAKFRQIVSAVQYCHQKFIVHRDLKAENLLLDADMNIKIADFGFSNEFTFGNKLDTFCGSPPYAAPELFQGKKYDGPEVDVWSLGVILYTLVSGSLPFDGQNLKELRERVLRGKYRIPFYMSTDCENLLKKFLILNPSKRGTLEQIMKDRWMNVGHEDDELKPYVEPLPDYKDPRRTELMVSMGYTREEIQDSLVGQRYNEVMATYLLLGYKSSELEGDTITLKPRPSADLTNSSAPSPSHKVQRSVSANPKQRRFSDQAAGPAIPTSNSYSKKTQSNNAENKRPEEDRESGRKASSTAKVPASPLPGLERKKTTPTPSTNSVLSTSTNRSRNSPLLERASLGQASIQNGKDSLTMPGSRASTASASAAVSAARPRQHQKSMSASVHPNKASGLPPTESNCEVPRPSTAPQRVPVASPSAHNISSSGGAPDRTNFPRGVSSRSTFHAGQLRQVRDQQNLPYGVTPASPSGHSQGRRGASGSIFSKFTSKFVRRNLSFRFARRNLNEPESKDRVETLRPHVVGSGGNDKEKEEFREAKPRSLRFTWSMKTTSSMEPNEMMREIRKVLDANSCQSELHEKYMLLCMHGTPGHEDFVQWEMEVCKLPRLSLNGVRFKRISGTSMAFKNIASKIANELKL

[25] = molecular target: Dual specificity mitogen-activated protein kinase kinase 4 (Homo sapiens) (UniProt P45985); details: Compound concentration 1000.0 nM
[26] = system: Hepatocyte growth factor receptor (Homo sapiens), P08581 [Y1235D]; details: Compound concentration 1000.0 nM
[27] = molecular target: Misshapen-like kinase 1 (Homo sapiens) (UniProt Q8N4C8); details: Compound concentration 1000.0 nM
[28] = molecular target: Macrophage-stimulating protein receptor (Homo sapiens) (UniProt Q04912); details: Compound concentration 1000.0 nM
Chain of Macrophage-stimulating protein receptor (Homo sapiens) (Q04912 25-304 limits assumed): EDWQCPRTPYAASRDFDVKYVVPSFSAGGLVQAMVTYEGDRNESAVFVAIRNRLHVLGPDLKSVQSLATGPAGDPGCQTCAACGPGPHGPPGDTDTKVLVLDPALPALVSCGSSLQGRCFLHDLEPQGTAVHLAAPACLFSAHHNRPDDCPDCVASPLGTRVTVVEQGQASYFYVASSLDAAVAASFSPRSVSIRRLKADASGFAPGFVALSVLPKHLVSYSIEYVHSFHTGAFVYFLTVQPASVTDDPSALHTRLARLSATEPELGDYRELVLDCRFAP
Chain of Macrophage-stimulating protein receptor (Homo sapiens) (Q04912 310-1400 limits assumed): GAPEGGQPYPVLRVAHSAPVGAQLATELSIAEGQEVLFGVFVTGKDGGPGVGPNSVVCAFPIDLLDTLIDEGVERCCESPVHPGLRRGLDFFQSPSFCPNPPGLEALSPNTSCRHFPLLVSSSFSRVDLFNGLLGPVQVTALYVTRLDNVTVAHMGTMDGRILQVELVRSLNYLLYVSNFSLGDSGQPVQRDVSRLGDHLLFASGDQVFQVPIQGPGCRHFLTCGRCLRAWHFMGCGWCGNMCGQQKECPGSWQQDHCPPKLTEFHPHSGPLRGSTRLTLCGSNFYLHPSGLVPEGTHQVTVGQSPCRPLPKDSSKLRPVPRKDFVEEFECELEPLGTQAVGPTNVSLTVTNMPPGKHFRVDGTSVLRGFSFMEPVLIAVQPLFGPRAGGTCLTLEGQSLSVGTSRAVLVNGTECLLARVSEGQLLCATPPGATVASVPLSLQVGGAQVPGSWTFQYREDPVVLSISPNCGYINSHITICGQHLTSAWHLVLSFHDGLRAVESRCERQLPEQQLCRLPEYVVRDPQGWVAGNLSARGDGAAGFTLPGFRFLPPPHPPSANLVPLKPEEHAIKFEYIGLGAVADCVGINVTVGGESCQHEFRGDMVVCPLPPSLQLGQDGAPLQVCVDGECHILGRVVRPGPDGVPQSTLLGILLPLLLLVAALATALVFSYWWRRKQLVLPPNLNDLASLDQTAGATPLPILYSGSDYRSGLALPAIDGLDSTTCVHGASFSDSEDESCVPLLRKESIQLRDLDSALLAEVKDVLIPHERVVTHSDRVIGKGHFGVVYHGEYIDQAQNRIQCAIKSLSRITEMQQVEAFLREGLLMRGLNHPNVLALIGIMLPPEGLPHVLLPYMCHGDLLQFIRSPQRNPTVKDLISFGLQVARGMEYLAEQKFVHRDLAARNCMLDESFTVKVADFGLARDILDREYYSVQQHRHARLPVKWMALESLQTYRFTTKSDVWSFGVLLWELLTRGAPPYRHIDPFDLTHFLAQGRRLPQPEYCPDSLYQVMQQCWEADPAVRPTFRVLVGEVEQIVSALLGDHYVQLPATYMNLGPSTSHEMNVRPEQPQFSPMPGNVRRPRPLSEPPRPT

[29] = molecular target: Serine/threonine-protein kinase 3 (Homo sapiens) (UniProt Q13188); details: Compound concentration 1000.0 nM
[30] = molecular target: Myosin-IIIb (Homo sapiens) (UniProt Q8WXR4); details: Compound concentration 1000.0 nM
[31] = molecular target: Serine/threonine-protein kinase NLK (Homo sapiens) (UniProt Q9UBE8); details: Compound concentration 1000.0 nM
[32] = system: Phosphatidylinositol 4,5-bisphosphate 3-kinase catalytic subunit alpha isoform (Homo sapiens), P42336 [E542K]; details: Compound concentration 1000.0 nM
[33] = molecular target: Phosphatidylinositol 4-kinase beta (Homo sapiens) (UniProt Q9UBF8); details: Compound concentration 1000.0 nM
[34] = molecular target: Phosphatidylinositol 5-phosphate 4-kinase type-2 gamma (Homo sapiens) (UniProt Q8TBX8); details: Compound concentration 1000.0 nM
[35] = molecular target: Serine/threonine-protein kinase PLK4 (Homo sapiens) (UniProt O00444); details: Compound concentration 1000.0 nM
[36] = molecular target: Interferon-induced, double-stranded RNA-activated protein kinase (Homo sapiens) (UniProt P19525); details: Compound concentration 1000.0 nM
[37] = molecular target: Serine/threonine-protein kinase RIO3 (Homo sapiens) (UniProt O14730); details: Compound concentration 1000.0 nM
Chain of Serine/threonine-protein kinase RIO3 (Homo sapiens) (O14730 whole entry): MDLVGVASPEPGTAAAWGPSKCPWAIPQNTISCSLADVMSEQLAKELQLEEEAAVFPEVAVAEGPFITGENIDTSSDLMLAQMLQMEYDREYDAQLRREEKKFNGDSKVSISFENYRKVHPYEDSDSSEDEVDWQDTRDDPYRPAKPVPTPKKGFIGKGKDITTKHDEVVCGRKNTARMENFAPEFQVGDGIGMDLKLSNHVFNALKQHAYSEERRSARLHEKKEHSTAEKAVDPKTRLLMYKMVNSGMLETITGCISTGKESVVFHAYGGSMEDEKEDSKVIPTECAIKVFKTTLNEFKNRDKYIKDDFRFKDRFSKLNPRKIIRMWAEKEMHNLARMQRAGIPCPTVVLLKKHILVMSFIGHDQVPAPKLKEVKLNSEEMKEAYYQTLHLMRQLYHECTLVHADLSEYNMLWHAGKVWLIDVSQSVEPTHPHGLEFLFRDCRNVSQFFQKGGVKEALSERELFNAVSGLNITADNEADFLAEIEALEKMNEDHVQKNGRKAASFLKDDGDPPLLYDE

[38] = molecular target: Uncharacterized serine/threonine-protein kinase SBK3 (Homo sapiens) (UniProt P0C264); details: Compound concentration 1000.0 nM
Chain of Uncharacterized serine/threonine-protein kinase SBK3 (Homo sapiens) (P0C264 whole entry): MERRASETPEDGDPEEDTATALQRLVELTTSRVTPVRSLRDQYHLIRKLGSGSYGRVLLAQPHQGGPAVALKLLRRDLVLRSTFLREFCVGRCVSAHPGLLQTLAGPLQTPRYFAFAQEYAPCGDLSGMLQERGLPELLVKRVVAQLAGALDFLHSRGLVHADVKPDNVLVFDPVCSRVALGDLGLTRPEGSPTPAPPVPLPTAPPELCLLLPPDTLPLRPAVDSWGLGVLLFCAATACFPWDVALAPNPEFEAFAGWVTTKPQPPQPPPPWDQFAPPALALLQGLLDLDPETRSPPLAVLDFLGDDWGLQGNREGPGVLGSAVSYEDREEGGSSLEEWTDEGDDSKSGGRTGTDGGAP

[39] = molecular target: SRSF protein kinase 3 (Homo sapiens) (UniProt Q9UPE1); details: Compound concentration 1000.0 nM
[40] = molecular target: TGF-beta receptor type-1 (Homo sapiens) (UniProt P36897); details: Compound concentration 1000.0 nM
[41] = molecular target: TGF-beta receptor type-2 (Homo sapiens) (UniProt P37173); details: Compound concentration 1000.0 nM
[42] = molecular target: Serine/threonine-protein kinase tousled-like 2 (Homo sapiens) (UniProt Q86UE8); details: Compound concentration 1000.0 nM
[43] = molecular target: Serine/threonine-protein kinase WNK1 (Homo sapiens) (UniProt Q9H4A3); details: Compound concentration 1000.0 nM
[44] = molecular target: Mitogen-activated protein kinase kinase kinase 20 (Homo sapiens) (UniProt Q9NYL2); details: Compound concentration 1000.0 nM
[45] = molecular target: Alpha-2B adrenergic receptor (Homo sapiens) (UniProt P18089); details: Compound concentration 10.0 uM
Chain of Alpha-2B adrenergic receptor (Homo sapiens) (P18089 whole entry): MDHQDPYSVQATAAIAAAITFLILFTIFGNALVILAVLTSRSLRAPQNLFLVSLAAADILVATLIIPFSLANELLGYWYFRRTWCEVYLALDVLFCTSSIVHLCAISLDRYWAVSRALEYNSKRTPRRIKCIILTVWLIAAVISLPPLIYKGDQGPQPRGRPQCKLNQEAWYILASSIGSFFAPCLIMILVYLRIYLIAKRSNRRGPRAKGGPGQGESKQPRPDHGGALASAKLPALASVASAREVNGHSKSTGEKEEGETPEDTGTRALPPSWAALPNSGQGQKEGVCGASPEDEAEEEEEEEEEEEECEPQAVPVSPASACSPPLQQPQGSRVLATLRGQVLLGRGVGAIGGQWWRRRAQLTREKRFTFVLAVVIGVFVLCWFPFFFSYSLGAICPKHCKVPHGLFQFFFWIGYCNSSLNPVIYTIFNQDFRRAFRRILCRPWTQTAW

With `CO[C@@H](C)c1c(Nc2ccc([C@@H](N(C)C(=O)C3CCS(=O)(=O)CC3)C(F)(F)F)cc2)cnc2cc(Cl)nn12` [NVS-MALT1-C] the residual activity [1] was 96%, the residual activity [2] was 100% and the residual activity [3] was 100%. It also gave a residual activity [4] of 100%, a residual activity [5] of 100% and a residual activity [6] of 93%. For the same compound, the residual activity [7] was 100%, the residual activity [8] was 100% and the residual activity [9] was 47%. For the same compound, the residual activity [10] was 100%, the residual activity [11] was 90% and the residual activity [12] was 100%. It also gave a residual activity [13] of 100%, a residual activity [14] of 100% and a residual activity [15] of 100%. It also gave a residual activity [16] of 52%, a residual activity [17] of 68% and a residual activity [18] of 100%. For the same compound, the residual activity [19] was 100%, the residual activity [20] was 95% and the residual activity [21] was 96%. The residual activity [22] was 100%, the residual activity [23] was 94% and the residual activity [24] was 100%. The residual activity [25] was 100%, the residual activity [26] was 85% and the residual activity [27] was 100%. For the same compound, the residual activity [28] was 100%, the residual activity [29] was 100% and the residual activity [30] was 100%. The residual activity [31] was 84%, the residual activity [32] was 78% and the residual activity [33] was 100%. The residual activity [34] was 58%, the residual activity [35] was 100% and the residual activity [36] was 88%. For the same compound, the residual activity [37] was 90%, the residual activity [38] was 81% and the residual activity [39] was 100%. For the same compound, the residual activity [40] was 95%, the residual activity [41] was 100% and the residual activity [42] was 100%. The residual activity [43] was 98%, the residual activity [44] was 100% and the inhibition [45] was 1.55%.

Work on `CO[C@@H](C)c1c(Nc2ccc([C@H](N(C)C(=O)C3CCS(=O)(=O)CC3)C(F)(F)F)cc2)cnc2cc(Cl)nn12` [NVS-MALT1] yielded a residual activity [1] of 84%, a residual activity [2] of 100% and a residual activity [3] of 100%. It also gave a residual activity [4] of 93%, a residual activity [5] of 71% and a residual activity [6] of 78%. For the same compound, the residual activity [7] was 100%, the residual activity [8] was 100% and the residual activity [9] was 91%. It also gave a residual activity [10] of 99%, a residual activity [11] of 100% and a residual activity [12] of 100%. For the same compound, the residual activity [13] was 100%, the residual activity [14] was 100% and the residual activity [15] was 94%. It also gave a residual activity [16] of 59%, a residual activity [17] of 78% and a residual activity [18] of 100%. For the same compound, the residual activity [19] was 100%, the residual activity [20] was 98% and the residual activity [21] was 100%. The residual activity [22] was 100%, the residual activity [23] was 99% and the residual activity [24] was 100%. For the same compound, the residual activity [25] was 100%, the residual activity [26] was 100% and the residual activity [27] was 100%. It also gave a residual activity [28] of 100%, a residual activity [29] of 92% and a residual activity [30] of 82%. For the same compound, the residual activity [31] was 83%, the residual activity [32] was 71% and the residual activity [33] was 82%. It also gave a residual activity [34] of 91%, a residual activity [35] of 100% and a residual activity [36] of 96%. For the same compound, the residual activity [37] was 82%, the residual activity [38] was 84% and the residual activity [39] was 100%. For the same compound, the residual activity [40] was 94%, the residual activity [41] was 100% and the residual activity [42] was 92%. The residual activity [43] was 100%, the residual activity [44] was 100% and the inhibition [45] was 0.32%.
